Test results published in PMC6661824, “α-Glucosidase inhibitors from a mangrove associated fungus, Zasmidium sp. strain EM5-10” (BMC Chemistry, 2019).
Where “and” joins values, the source holds several entries; their conditions need not be identical. Equal entries are not always repeated.

Columns and labels:
α-glucosidase = assay: Kinetic analysis of α-glucosidase inhibition (Lineweaver–Burk plots); type: biochemical, S. cerevisiae; conditions: for type of inhibition against α-glucosidase: Lineweaver–Burk plots; for Vmax: maximum reaction velocity of α-glucosidase in presence of inhibitor
Experimental: Kinetic analysis was carried out to understand the interaction of tripalmitin with α-glucosidase. Lineweaver–Burk plots were constructed using different concentrations of substrate and tripalmitin.
(§1) The α-glucosidase inhibitory assay was performed according to the protocol established in our laboratory. α-Glucosidase from baker’s yeast purchased from Sigma Chemical Co. The inhibition was measured spectrophotometrically at pH 7.0 and 37 °C employing 2 mM p-nitrophenyl α-D-glucopyranoside (PNP-G) as a substrate and 32 mU/mL of the enzyme, in 100 mM potassium phosphate buffer (enzyme stock). […] The absorbance (A) of 4-nitrophenol released by the hydrolysis of PNP-G was measured at 400 nm by Synergy HT Bio Tek microplate spectrophotometer. […] After incubating, 150 µL of the substrate was added and further incubated for 20 min at 37 °C. All assays are performed in 96-well microplates (Greiner bio-one 655101) in duplicate. The activity of samples was calculated as a percentage in comparison to a control (DMSO or MeOH instead of sample solution) according to the following equation: %Inhibition=ΔAcontrol-ΔAsample/ΔAcontrol×100%

[1] = biological target: α-Glucosidase from baker's yeast; assay: α-Glucosidase inhibitory assay (PNP-G substrate); type: biochemical, S. cerevisiae
Experimental: as §1
The concentration required to inhibit activity of the enzyme by 50% (IC50) was calculated by regression analysis.

[2] = standards purchased from Sigma-Aldrich

Row | Compound | type of inhibition against α-glucosidase (α-glucosidase) | Vmax (α-glucosidase) [mmol/L/min] | IC50 ([1]; pH 7.0, 37 °C, 2 mM PNP-G) | IC50 α-glucosidase ([1]; pH 7.0, 37 °C, 2 mM PNP-G) [µg/mL] | IC50 [1, 2] [nM] | α-glucosidase inhibition (result in words) ([1]; obtained from methanolysis reaction)
1 | CCCCCCCCCCCCCCCC(=O)OC [methyl palmitate] | mixed inhibitors | 0.0024 ± 0.0002 | 460 nM | 0.13 |  | 
2 | CCCCCCCC/C=C\CCCCCCCC(=O)O [oleic acid] |  |  | 230 nM |  |  | 
3 | CCCCCCCCCCCCCCCCCC(=O)O [stearic acid] |  |  | 810 nM |  |  | 
4 | CCCCCCCCCCCCCCCC(=O)OCC(COC(=O)CCCCCCCCCCCCCCC)OC(=O)CCCCCCCCCCCCCCC [Compound 1, tripalmitin] | mixed inhibitor | 0.0027 ± 0.0001 | 3750 nM and 3670 nM | 3.02 | 3200 | 
5 | CCCCCCCC/C=C\CCCCCCCC(=O)OCC(COC(=O)CCCCCCC/C=C\CCCCCCCC)OC(=O)CCCCCCC/C=C\CCCCCCCC [triolein] |  |  |  |  | 1520 | 
6 | OCC(O)CO [glycerol] |  |  |  |  |  | inactive
